Experimental findings from patent US20020164620A1, “Method for identifying compounds modulating sister chromatid separation” (Boehringer Ingelheim International GmbH, priority 2001, published 2002) are described below.

The test system of test [1] is human separase. The experiment in a line: SCC1 in vitro cleavage assay. It counts as biochemical. On the procedure:
30 microliter beads were incubated with 40 μg bacterially expressed wildtype securin, destruction box deleted form of securin (Gmachl et al., 2000) or BSA diluted in XB+1 mM DTT for 40 min at RT. Subsequently the beads were washed with XB+1 mM DTT and with TBS+0.5 M NaCl+1 mM DTT+0.5% TWEEN20, followed by one wash with XB+1 mM DTT. To control the rebinding of securin an aliquot of 5 μl was taken per assay and subsequently analysed by immunoblotting with antibodies against separase and securin.
The beads were used for the SCC1 in vitro cleavage assay: 20 μl beads were mixed with 30 μl of the following SCC1 in vitro translation mix (SCC1 myc IVT+1 μl PLK-GST+0.3 μl […], 0.3 μl 100 mM ATP, 0.12 μl 250 mM EGTA, 13.78 μl XB+1 mM DTT) and incubated at 22° C. and 1200 rpm. 5 μl were taken per time point, the reaction was stopped by addition of SDS loading buffer. Samples were analyzed by immunoblotting with mouse monoclonal antibodies against myc (9E10).
(§1) B. Separase immunoprecipitates were incubated with 100 μM Biotin-SVEQGR-amk or with DMSO prior mitotic activation. Incubation for 10 minutes, 22° C. and 1000 rpm. After washing twice in XB+1 mM DTT the activation was performed in mitotic Xenopus egg extracts.
(§2) Interphase Xenopus egg extracts were driven into mitosis in the presence of 1 mM Biotin-SVEQGR-amk or DMSO. Those mitotic Xenopus egg extracts were used to activate a batch of separase immunoprecipitates.

Test [2] addresses human separase (Homo sapiens, UniProt Q14674). To be noted: same concentration at which SCC1 cleavage was inhibited.
Method: A. Mitotically activated separase immunoprecipitates were preincubated with yeast peptides (Uhlmann et al., 2000) before they were used in the SCC1-cleavage assay. Biotin-SVEQGR-amk or Biotin-SVEQGR-cmk were used at different concentration (0.1, 1, 10, 100, 1000 μM in XB+0.5 mM DTT). Separase immunoprecipitates were incubated for 10 minutes, 22° C. and 1200 rpm. The SCC1 in vitro cleavage assay was performed after washing once with XB+0.5 mM DTT (see above). Human peptides, Biotin-DREIMR-amk or DREIMR-amk, were diluted and used as above described for the yeast peptides.
Test [3] concerns human separase. The experiment in a line: Covalent labelling of separase forms by biotin peptide (avidin blot). It counts as binding. As to the method: as §1, §2
Biotin labeled peptides were detected via immunoblotting according to Faleiro et al., 1997.
C. Mitotically activated separase immunoprecipitates were preincubated with either 8 μg recombinant securin or with 8 μg of a C-terminal truncated version of cyclinB in 100 μl XB+1 mM DTT for 30 min at 22° C. and 1250 rpm. Subsequently the beads were washed twice with TBS+0.5 M NaCl+1 mM DTT+0.5% Tween 20 and twice with XB+1 mM DTT. Thereafter beads were incubated with 100 μl of 100 μM Bio-DREIMR-amk in XB+[…]. After 10 min incubation at 22° C. and 1250 rpm beads were again washed and analyzed by immunoblotting.
FIG. 4B: Separase IPs (see A) were either preincubated with Biotin-SVEQGR-amk (preinc. with inh. peptide) or with DMSO (preinc. with DMSO), subsequently washed and aliquots were taken. Thereafter they were incubated in mitotic Xenopus egg extracts and washed again. Samples were taken for analysis (1i, 1c). Separase IPs were activated either in mitotic Xenopus egg extracts which were driven into mitosis in the presence of Biotin-SVEQGR-amk or DMSO, subsequently washed and aliquots were taken for analysis (2i, 2c). Already mitotically activated separase IPs (see A) were incubated with Biotin-SVEQGR-amk or DMSO, thereafter washed and aliquots were taken for analysis (3i, 3c). All samples were analysed by immunoblotting with avidin.
FIG. 4D: Activated separase immunoprecipitates bound by antibodies against the C-terminus of separase to beads were first incubated with recombinant securin or, for control, with recombinant truncated cyclinB. […] Thereafter, the immunoprecipitates were again washed and analyzed by immunoblotting.

[4] abbreviates: activation in mitotic Xenopus extracts in presence of peptide (lane 2i).
The mark [5] stands for this setting: substance added to mitotically activated separase immunoprecipitates before SCC1-myc reaction mix.

Entries after “also recorded” stand apart in the source; their conditions may differ. No end group written: not given here. *: point of attachment. acyloxymethyl ketone = C-terminal acyloxymethyl ketone; Biotin = O=C1N[C@H]2[C@H](CS[C@H]2CCCCC(=O)*)N1

Chain of human separase (Q14674 1536-2120 limits assumed): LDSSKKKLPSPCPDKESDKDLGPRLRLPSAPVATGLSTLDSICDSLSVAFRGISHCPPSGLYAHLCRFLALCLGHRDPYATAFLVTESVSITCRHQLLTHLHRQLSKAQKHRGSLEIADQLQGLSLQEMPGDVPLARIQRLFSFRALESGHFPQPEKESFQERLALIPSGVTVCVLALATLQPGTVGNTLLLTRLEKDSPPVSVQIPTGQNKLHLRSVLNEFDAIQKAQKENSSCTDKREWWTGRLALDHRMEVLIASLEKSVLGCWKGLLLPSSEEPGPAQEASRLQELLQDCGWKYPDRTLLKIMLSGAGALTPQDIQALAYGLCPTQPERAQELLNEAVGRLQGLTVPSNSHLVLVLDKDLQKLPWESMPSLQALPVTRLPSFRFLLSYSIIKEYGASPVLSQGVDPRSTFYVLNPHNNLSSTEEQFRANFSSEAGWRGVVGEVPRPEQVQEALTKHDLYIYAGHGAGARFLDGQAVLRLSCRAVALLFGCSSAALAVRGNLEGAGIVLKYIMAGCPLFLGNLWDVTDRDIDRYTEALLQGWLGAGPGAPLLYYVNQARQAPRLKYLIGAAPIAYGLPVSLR
Chain of human separase (Homo sapiens, UniProt Q14674) (Q14674 whole entry): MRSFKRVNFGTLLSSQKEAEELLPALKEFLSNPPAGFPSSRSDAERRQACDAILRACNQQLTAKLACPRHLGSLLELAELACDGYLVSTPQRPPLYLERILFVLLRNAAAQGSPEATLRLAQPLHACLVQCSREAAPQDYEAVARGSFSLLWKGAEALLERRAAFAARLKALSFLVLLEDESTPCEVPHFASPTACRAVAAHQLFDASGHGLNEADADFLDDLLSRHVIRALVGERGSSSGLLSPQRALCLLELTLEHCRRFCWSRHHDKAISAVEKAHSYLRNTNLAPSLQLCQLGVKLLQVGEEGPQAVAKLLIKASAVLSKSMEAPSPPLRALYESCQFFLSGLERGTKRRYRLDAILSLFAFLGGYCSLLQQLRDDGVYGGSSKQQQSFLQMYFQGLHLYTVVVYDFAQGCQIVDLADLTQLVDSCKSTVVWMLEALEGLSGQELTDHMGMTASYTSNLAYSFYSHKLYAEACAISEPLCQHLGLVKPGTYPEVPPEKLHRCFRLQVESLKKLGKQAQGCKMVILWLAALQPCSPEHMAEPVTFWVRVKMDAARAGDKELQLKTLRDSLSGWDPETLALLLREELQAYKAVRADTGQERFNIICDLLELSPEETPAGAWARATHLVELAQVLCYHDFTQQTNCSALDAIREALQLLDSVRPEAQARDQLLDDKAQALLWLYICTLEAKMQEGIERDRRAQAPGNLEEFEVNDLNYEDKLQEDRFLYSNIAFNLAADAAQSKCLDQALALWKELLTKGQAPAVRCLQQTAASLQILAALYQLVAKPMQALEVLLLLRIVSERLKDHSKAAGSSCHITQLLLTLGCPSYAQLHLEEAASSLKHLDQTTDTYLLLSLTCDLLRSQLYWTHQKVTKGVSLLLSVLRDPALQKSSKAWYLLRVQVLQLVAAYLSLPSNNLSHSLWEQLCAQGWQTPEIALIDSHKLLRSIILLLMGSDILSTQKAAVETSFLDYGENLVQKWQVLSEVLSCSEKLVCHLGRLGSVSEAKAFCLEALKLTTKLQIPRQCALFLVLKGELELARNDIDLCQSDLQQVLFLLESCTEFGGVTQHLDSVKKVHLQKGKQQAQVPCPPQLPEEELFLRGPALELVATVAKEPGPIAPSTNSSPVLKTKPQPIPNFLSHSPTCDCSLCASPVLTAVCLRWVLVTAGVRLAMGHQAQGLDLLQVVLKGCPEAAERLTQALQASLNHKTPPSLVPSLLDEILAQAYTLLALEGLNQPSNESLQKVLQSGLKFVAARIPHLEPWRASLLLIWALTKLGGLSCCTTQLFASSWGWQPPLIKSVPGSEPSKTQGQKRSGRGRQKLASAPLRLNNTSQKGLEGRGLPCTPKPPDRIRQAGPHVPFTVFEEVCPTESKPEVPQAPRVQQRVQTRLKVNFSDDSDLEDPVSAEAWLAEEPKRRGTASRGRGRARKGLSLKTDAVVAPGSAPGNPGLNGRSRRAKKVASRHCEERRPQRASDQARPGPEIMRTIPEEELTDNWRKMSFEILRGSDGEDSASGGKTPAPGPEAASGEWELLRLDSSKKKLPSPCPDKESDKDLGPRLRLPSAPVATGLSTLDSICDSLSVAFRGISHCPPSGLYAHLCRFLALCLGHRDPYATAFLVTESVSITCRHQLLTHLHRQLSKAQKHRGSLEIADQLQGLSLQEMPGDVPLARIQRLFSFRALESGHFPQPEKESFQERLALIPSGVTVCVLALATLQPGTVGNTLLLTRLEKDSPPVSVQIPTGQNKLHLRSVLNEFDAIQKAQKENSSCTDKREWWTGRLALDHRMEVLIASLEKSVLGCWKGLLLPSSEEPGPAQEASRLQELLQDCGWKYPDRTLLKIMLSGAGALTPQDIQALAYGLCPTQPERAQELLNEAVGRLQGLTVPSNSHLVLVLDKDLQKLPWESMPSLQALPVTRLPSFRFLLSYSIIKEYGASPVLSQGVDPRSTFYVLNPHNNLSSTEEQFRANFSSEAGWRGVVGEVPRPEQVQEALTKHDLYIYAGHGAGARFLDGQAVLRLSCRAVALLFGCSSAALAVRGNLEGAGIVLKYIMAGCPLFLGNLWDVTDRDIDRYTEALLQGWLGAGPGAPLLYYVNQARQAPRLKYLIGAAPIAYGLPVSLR

As for “Bio-SVEQGR-amk: synthetic peptide with budding yeast SCC1 cleavage site SVEQGR, C-terminal acyloxymethyl ketone, N-terminal biotin (Biotin-SVEQGR-{acyloxymethyl ketone})”, the “relative effectiveness of the two yeast peptide inhibitors” value in the test with human separase [1] was “the more effective one of the two yeast peptide inhibitors”. Also, the “SCC1 cleavage by separase” value in the test with human separase [1] (setting [4]) is listed as “separase was unable to cleave SCC1”; with human separase [1] (peptide added before activation and washed away before mitotic Xenopus extract (lane 1i)) it was “separase could be activated normally to cleave SCC1”; in the test with human separase [1] (setting [5]), “inhibited SCC1 cleavage by separase; also recorded: able to block the ability of separase to cleave SCC1”. In the test with human separase [2], the “formation of the p55 cleavage product of human separase” value is given as “largely inhibited”. Besides, the “separase forms labeled by the peptide” value is “both the cleaved forms of separase and full-length separase were covalently labeled” with human separase [3] (setting [4]); “only the small amount of p60 that is already present in these immunoprecipitates was labeled” in the test with human separase [3] (peptide added before activation in mitotic Xenopus extracts (lane 1i)). Besides, the “separase forms bound by the peptide” value in the test on human separase [3] (peptide added after activation in mitotic Xenopus extracts (lane 3i)) is “bound exclusively to the cleaved forms of human separase”.

As to “DREIMR-amk: peptide inhibitor based on the cleavage recognition site of human SCC1, DREIMR, acyloxymethyl ketone (DREIMR-{acyloxymethyl ketone})”, the “SCC1 cleavage by separase” value in the test on human separase [1] (setting [5]) is “able to inhibit separase at a similar concentration as the peptide inhibitors derived from yeast”.
